Source: paper PMC9088311, “Cyclic Thiosulfonates for Thiol-Mediated Uptake: Cascade Exchangers, Transporters, Inhibitors” (JACS Au, 2022)
pIC50: −log10 of the molar value. “And” between values parts separate entries of the source, which are not always exact repeats. Equal values may be shown once. Read-outs that look alike come from different tables or passages of the source. Marks after values point to notes of the source that are not given here.

Tested on: lentivirus with D614G SC2 spike protein, A549 cells overexpressing ACE2 and TMPRSS2
Type: cell-based, SARS-CoV-2
Parameters: key to qualitative inhibition of SC2 uptake (heatmap): –: −: inactive; ++: qualitative inhibition of SC2 uptake
Conditions: for pIC50: read-out: IC50 of SC2 lentivector entry

SMILES | VE, vector entry | other results
CCN1C(=O)C2SSSSC1C(=O)N2CC(=O)O (stereo not drawn) [Compound 47, reference compound] | 83 ± 12% | qualitative inhibition of SC2 uptake (heatmap): –
O=S1(=O)C[C@H](O)[C@H](O)CS1 (stereo in doubt) [Compound 3, (4S,5R)-4,5-dihydroxy-1,2-dithiane-1,1-dioxide] |  | inhibition of SC2 lentivector entry (in words): inactive; qualitative inhibition of SC2 uptake (heatmap): ++
O=S(O)CC(O)C(O)CSSCCSSCC(O)C(O)CS(=O)O (stereo not drawn) [Compound 40] | 64 ± 25% | 
CC(=O)/C=C1/C(=O)N(C)c2ccccc21 [Compound 48, super-cinnamaldehyde, reference compound] | >100% | inhibition of SC2 lentivector entry (in words) (5 μM): weak activation rather than inhibition
O=S(O)CC(O)C(O)CSSCC(O)C(O)CS(=O)O (stereo not drawn) [Compound 37] | 42 ± 32% | 
CC#CI1OC(=O)c2ccccc21 [Compound 49, reference compound] | >100% | inhibition of SC2 lentivector entry (in words): did not inhibit; qualitative inhibition of SC2 uptake (heatmap): –
O=C(NCCCCCCNC(=O)O[C@H]1CSS(=O)(=O)C[C@H]1O)O[C@H]1CSS(=O)(=O)C[C@H]1O [Compound 41] | >100 ^f % | inhibition of SC2 lentivector entry (in words): inactive
CC(C)(C)OC(=O)NCCNC(=O)O[C@H]1CSS(=O)(=O)C[C@H]1O[Si](C)(C)C(C)(C)C (racemic) [Compound 50] |  | VE, vector entry (inhibitor 5 μM (1 h), lentivirus 6 h, 3 days expression, n = 3, ±SD): 100 ± 40%
CC(C)(C)[Si](C)(C)OC1CS(=O)(=O)SCC1OC(=O)NCCCCCCNC(=O)OC1CSS(=O)(=O)CC1O[Si](C)(C)C(C)(C)C (stereo not drawn) [Compound 4] | 46 ± 8% | pIC50: ~5.00 and ~5.30
O=c1c2ccccc2[se]n1-c1ccccc1 [Compound 46, Ebselen, reference compound] | 65 ± 13% | inhibition of SC2 lentivector entry (in words) (50 μM): more toxic than active
CC1(C)O[C@H]2CSS(=O)(=O)C[C@H]2O1 [Compound 13] | 80 ± 20% | 
CCCNC(=O)O[C@H]1CSS(=O)(=O)C[C@H]1O[Si](C)(C)C(C)(C)C [Compound 43] | 99 ± 12% | inhibition of SC2 lentivector entry (in words): inactivity
O=C(O)Cn1[se]c2ccccc2c1=O [Compound 45, reference compound] | 31 ± 3% | qualitative inhibition of SC2 uptake (heatmap): ++; inhibition of SC2 lentivector entry (in words) (50 μM): more active and nontoxic
CC(C)(C)OC(=O)NCCNC(=O)O[C@H]1CSS(=O)(=O)C[C@H]1O [Compound 34] | 8 ± 6% | 
CC(C)(C)[Si](C)(C)O[C@@H]1CS(=O)(=O)SC[C@@H]1OC(=O)NCC[N+](C)(C)C [Compound 38] | 43 ± 26% | 
CC(=O)O[C@H]1CSS(=O)(=O)C[C@H]1O [Compound 36] | 34 ± 3% | 
O=C(N[C@H]1CCS(=O)(=O)SC1)N[C@H]1CCS(=O)(=O)SC1 [Compound 35] | 25 ± 3% | inhibition of SC2 lentivector entry (in words): inactivity; inhibition of SC2 lentivector entry (in words) (50 μM): high activity
NCCNC(=O)O[C@H]1CSS(=O)(=O)C[C@H]1O [Compound 39] | 52 ± 31% | 
CC(C)(C)[Si](C)(C)O[C@H]1CS(=O)(=O)SC[C@H]1OC(=O)NCCNC(=O)CC(O)(CC(=O)NCCNC(=O)O[C@H]1CSS(=O)(=O)C[C@H]1O[Si](C)(C)C(C)(C)C)C(=O)NCCNC(=O)O[C@@H]1CSS(=O)(=O)C[C@@H]1O[Si](C)(C)C(C)(C)C (stereo partly drawn) [Compound 42] | 97 ± 15% | 
O=C1O[C@H]2CSS(=O)(=O)C[C@H]2O1 [Compound 11] | 4 ± 1% | 
O=C(O)c1cc(SSc2ccc([N+](=O)[O-])c(C(=O)O)c2)ccc1[N+](=O)[O-] [Compound 16, 5,5’-Dithiobis(2-nitrobenzoic acid), reference compound] | >100% | inhibition of SC2 lentivector entry (in words) (5 μM): weak activation rather than inhibition
C#CCNC(=O)CC[C@H](NC(=O)COCCNC(=O)O[C@H]1CSS(=O)(=O)C[C@H]1O[Si](C)(C)C(C)(C)C)C(=O)NCCOCCNC(=O)O[C@H]1CSS(=O)(=O)C[C@H]1O[Si](C)(C)C(C)(C)C [Compound 44] | 103 ± 12% | 
O=C(NCCCCCCNC(=O)O[C@H]1CSS(=O)(=O)C[C@H]1OCc1ccccc1)O[C@H]1CSS(=O)(=O)C[C@H]1OCc1ccccc1 [Compound 33] | 56 ± 12% | pIC50: ~5.30
CC(C)(C)[Si](C)(C)O[C@@H]1CS(=O)(=O)SC[C@@H]1O [Compound 6] | 105 ± 3% | 
